Laboratory results as given in ChEMBL document CHEMBL1201862, “PubChem BioAssay data set” (2004).
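Following 48 hours of exposure in 96-well plates, responses at five concentrations were used to interpolate endpoints linearly. GI50 = concentration required for 50% inhibition of growth.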 Active and inactive are the calls of the source. Cut-off read from the data, not from the text of the source: active = GI50 up to about 1.1 µM and inactive = higher.

Key:
Assay in all cases: growth of human tumour cells (NCI), 48 h
HCT-15 = system: HCT-15
LOX IMVI = system: LOX IMVI
HCC 2998 = system: HCC 2998
T47D = system: T47D
CCRF-CEM = system: CCRF-CEM
EKVX = system: EKVX
TK-10 = system: TK-10
MOLT-4 = system: MOLT-4
NCI-H460 = system: NCI-H460
UACC-257 = system: UACC-257
UACC-62 = system: UACC-62
MCF7 = system: MCF7
MDA-MB-231 = system: MDA-MB-231
Hs-578T = system: Hs-578T
ACHN = system: ACHN
SK-MEL-28 = system: SK-MEL-28
OVCAR-4 = system: OVCAR-4
BT-549 = system: BT-549
K562 = system: K562

SMILES	GI50 (HCT-15) [µM]	GI50 (LOX IMVI)	GI50 (HCC 2998)	GI50 (T47D)	GI50 (CCRF-CEM)	GI50 (EKVX)	GI50 (TK-10)	GI50 (MOLT-4)	GI50 (NCI-H460)	GI50 (UACC-257)	GI50 (UACC-62)	GI50 (MCF7)	GI50 (MDA-MB-231)	GI50 (Hs-578T)	GI50 (ACHN)	GI50 (SK-MEL-28)	GI50 (OVCAR-4)	GI50 (BT-549)	GI50 (K562)
CC(C)(C)O/N=C/c1cc(NC(=S)c2ccccc2)ccc1Cl	15.1	15.7 µM (inactive)	11.3 µM (inactive)	18.9 µM (inactive)	23 µM (inactive)	15.2 µM (inactive)	12.2 µM (inactive)	8.71 µM (inactive)	6.89 µM (inactive)	13.1 µM (inactive)	14.6 µM (inactive)	22.9 µM (inactive)	21.3 µM (inactive)	22.5 µM (inactive)	16.4 µM (inactive)	14 µM (inactive)	18.3 µM (inactive)	15.6 µM (inactive)	
Cc1cn(C2CC(O)C(Cn3cc(Cn4ncc(=O)[nH]c4=O)nn3)O2)c(=O)[nH]c1=O (centres undefined)	> 100	> 100 µM (inactive)	> 100 µM (inactive)	> 100 µM (inactive)	0.478 µM (active)	> 100 µM (inactive)	> 100 µM (inactive)	> 100 µM (inactive)		> 100 µM (inactive)	> 100 µM (inactive)	> 100 µM (inactive)	> 100 µM (inactive)	> 100 µM (inactive)	> 100 µM (inactive)	> 100 µM (inactive)	> 100 µM (inactive)	> 100 µM (inactive)	
O=c1c2ccccc2c2c1c1c3ccccc3c(=O)c1c1c3ccccc3c(=O)c21	> 100	> 100 µM (inactive)	> 100 µM (inactive)	> 100 µM (inactive)	> 100 µM (inactive)	> 100 µM (inactive)	> 100 µM (inactive)	> 100 µM (inactive)	> 100 µM (inactive)	> 100 µM (inactive)	> 100 µM (inactive)	> 100 µM (inactive)	> 100 µM (inactive)	> 100 µM (inactive)	> 100 µM (inactive)	> 100 µM (inactive)		> 100 µM (inactive)	> 100 µM (inactive)
CCOP(=O)(OCC)/C(=C/n1c(=S)[nH]c2ccccc21)C(=O)OC	11.7	> 100 µM (inactive)	51.9 µM (inactive)	> 100 µM (inactive)	> 100 µM (inactive)	> 100 µM (inactive)		> 100 µM (inactive)	10 µM (inactive)	> 100 µM (inactive)	> 100 µM (inactive)	> 100 µM (inactive)	> 100 µM (inactive)	95.1 µM (inactive)	> 100 µM (inactive)	> 100 µM (inactive)	45.1 µM (inactive)	> 100 µM (inactive)	> 100 µM (inactive)
C=C(Cl)CN1c2ccccc2C=Cc2ccccc21	> 100	11 µM (inactive)	17.6 µM (inactive)	16.9 µM (inactive)		19.1 µM (inactive)	48.3 µM (inactive)		3.61 µM (inactive)	16.3 µM (inactive)	10.1 µM (inactive)	15.2 µM (inactive)	14.7 µM (inactive)	53.3 µM (inactive)	7.05 µM (inactive)		21.3 µM (inactive)	46 µM (inactive)	
C[C@@H]1C[C@@H]2OC(=O)[C@]3(C)[C@H]2[C@@H](OC3(C)O)[C@]2(C)C(=O)C=C[C@@H]12 (some centres undefined) [TENULIN]	10.1	19.2 µM (inactive)	17.2 µM (inactive)	19 µM (inactive)	4.68 µM (inactive)	20.2 µM (inactive)	18 µM (inactive)	16.4 µM (inactive)		18 µM (inactive)	16.8 µM (inactive)	15.7 µM (inactive)	25 µM (inactive)	51.6 µM (inactive)	19.5 µM (inactive)	18.3 µM (inactive)	10.8 µM (inactive)	10.1 µM (inactive)	0.0543 µM (active)
